Test system: thrips
Test: Thrips control in cotton, seed treatment field trials (1) and (2)
Assay type: in vivo, thrips on cotton
Conditions: for Adult Thrips 14 DAP / Immature Thrips 14 DAP / Immature Thrips 21 DAP: cotton DP 555 BR, seed treatment; for Adult Thrips 14 DAP / Immature Thrips 14 DAP: 14 days after planting; for Adult Thrips 14 DAP: number of adult thrips; for Immature Thrips 14 DAP / Immature Thrips 21 DAP: number of immature thrips; for Immature Thrips 21 DAP / Damage 21 DAP: 21 days after planting; for Damage 21 DAP: visual plant damage rating, scale 1 to 5 (1=no damage, 3=moderate damage, 5=severe damage)
Procedure: (a) A base fungicide seed treatment formulation is prepared by diluting a concentrate containing 3.32% mefenoxam (CAS# 70630-17-0), 1.11% fludioxonil (CAS# 131341-86-1) and 6.64% azoxystrobin (CAS# 131860-33-8), into water as a carrier. […] Seed treated are allowed to air dry and shipped and stored at ambient temperature prior to planting (approximately two weeks). (b) A seed treatment formulation is prepared by diluting Cruiser® […] seed treatment insecticide (Syngenta Crop Protection, Inc), which contains 49% thiamethoxam and the base fungicide concentrate described in (a), into water as a carrier. […] Seed treated are allowed to air dry and shipped and stored at ambient temperature prior to planting (approximately two weeks). (c) An abamectin seed treatment formulation is prepared by diluting an abamectin […] seed treatment nematicide formulation containing 46.3% abamectin and the base fungicide concentrate (a), into water as a carrier. […] Seed treated were allowed to air dry and were shipped and stored at ambient temperature prior to planting (approximately two weeks). The above formulations of thiamethoxam and abamectin were combined together into water as a carrier and with the base fungicide (a). […] This formulation dilution was applied for one to two minutes at ambient temperature to approximately one kilogram of Delta and Pine Land cottonseed (DP 555 BR) in a Hege seed treater. Seed treated were allowed to air dry and were shipped and stored at ambient temperature prior to planting (approximately two weeks). Control (a) and treated cottonseed (b) (c) and (d) were planted in field plots in two separate trials (1) and (2) as follows: Cottonseed is sown (4 seeds per foot) in plots with dimensions of 2 rows (36 inch row spacing) by 30-feet in a randomized complete block layout consisting of an control check (a), abamectin plus a base fungicide (c), thiamethoxam plus a base fungicide (b) and the combination of thiamethoxam and abamectin plus a base fungicide (d). […] Thrips were collected from five random plants within each replication of each treatment by collecting thrips in alcohol and counting the numbers of thrips using a dissecting scope in the laboratory.

Compound	thrips control (14 and 21 days after planting, cotton seed treatment)	Adult Thrips 14 DAP (Trial (1))	Immature Thrips 14 DAP (Trial (1))	Immature Thrips 21 DAP (Trial (1))	Damage 21 DAP (Trial (1))	Immature Thrips 14 DAP (Trial (2))	thrips control compared to the untreated check (trials 1 and 2, cotton seed treatment)
CN1COCN(Cc2cnc(Cl)s2)/C1=N\[N+](=O)[O-] [Thiamethoxam (b), thiamethoxam]	approximately 85%	5 per five plants	13 per five plants	20.25 per five plants	3.3	15 per five plants	–
abamectin [Abamectin (c)]	–	13 per five plants	39.25 per five plants	50.5 per five plants	4	71.5 per five plants	~50%

Reference: US20050208088A1, “Pesticidal composition and method for pest control” (priority 2004, published 2005)
